Four compounds from US9540325B2, “N1-cyclic amine-N5-substituted phenyl biguanide derivatives, methods of preparing the same and pharmaceutical composition comprising the same” (Immunomet Therapeutics, Inc., priority 2011, dated 2017) can be followed below.

Data set [1] concerns MCF7 cells (breast cancer stem cell, mammosphere). Nature of the data set: Measurement of effect of inhibiting mammosphere formation. The data set is classed as cell-based, human. The note with it: MCF7, 8 days; for Number of Mammospheres: size 50 um or more; for inhibition at 0.1 µM / inhibition at 1 µM / inhibition at 5 µM / inhibition at 10 µM: Homo sapiens, 192 h, vs untreated, read-out: Mammosphere formation inhibition rate (%). From the text: The cancer stem cells refer to cancer cells that have self-regeneration or differentiation capacity which is characteristically innate to stem cells. Here, the cancer stem cells show resistance to conventional anticancer therapy and poor prognosis. Therefore, the biguanide derivative has an effect of inhibiting cancer recurrence by inhibiting formation and proliferation of cancer stem cells, especially, breast cancer stem cells (mammosphere). Accordingly, the effect of the biguanide derivative of inhibiting breast cancer stem cell (mammosphere) formation was measured in an MCF7 cell line derived from human breast cancer forming mammospheres, and simple experimental methods are described, as follows.
MCF7 cells derived from human breast cancer were cultured (culture temperature: 37° C., pH: 7.0 to 7.4) in a DMEM medium supplemented with 10% (v/v) fetal bovine serum (commercially available from Gibco Life Technologies (US)) so that the MCF7 cells could grow to approximately 80% confluency and used in an experiment to determine an ability to form mammospheres. After MCF7 cells were made to single cells and the number of cell was counted, MCF7 cells were put in to a 24-well plate at 2,000 cells/well. […] Also, a culture media for forming mammospheres was prepared so that a serum-free DMEM/F12 medium could include 2% B27 (commercially available from Invitrogen), 20 ng/ml EGF (commercially available from Sigma), 5 μg/ml insulin (commercially available from Sigma) and 1 μg/ml hydrocortisone (commercially available from Sigma). Cells were cultured in a CO2 incubator for 24 hours and treated with each of the compounds synthesized in the examples at contents of 0.1 μM, 1 μM, 5 μM and 10 μM. Then, the cultured cells were added to the culture media for forming mammospheres so that a final volume of the culture broth could be adjusted to 1 ml. The cells were treated with the same concentrations of phenformin hydrochloride as the control and cultured in a CO2 incubator for 8 days. Thereafter, the mammosphere-forming efficiency and size of the cells were observed. After 8 days, the number of mammospheres having a size of 50 um or more was determined to calculate the mammosphere-forming efficiency (MFE (%)). The MFE (%) is calculated according to the following Equation 1.
When the cells were cultured for 8 days, MFE (%) of the cells on a plate treated with the phenformin hydrochloride and the compounds synthesized in the examples was compared with MFE (%) of the cells on a plate that was not treated with the compounds. The results are listed as the mammosphere formation inhibition rate (%) in the following Table 4, and the mammosphere-forming efficiencies of the respective compounds are shown in FIG. 1.

Data set [2] is described as follows: Solubility in water of hydrochloride and acetate salts. The data set is classed as physicochemical. The note with it: content 5 mg/1 ml distilled water, room temperature. The procedure:
The solubilities in water of the hydrochlorides prepared in Examples 26, 27, 32, 33, 48, 49, 53 and 54, and the solubilities in water of the acetates prepared in Examples 70 to 77, were compared.
The experimental conditions and methods are described, as follows.
1) 1 ml of distilled water is added to a container including 5 mg of salt at room temperature.
2) The resulting mixture is stirred for 10 minutes, and then kept at room temperature for 1 hour.
3) Undissolved residual salt is recovered and weighed.
4) The ratio of the amount of the recovered salt and the amount of the dissolved salt is calculated.
5) Operations 1) to 4) are repeatedly performed with increasing amount (i.e., 10, 15, 20, 25 and 30 mg) of salt.
The experimental procedures were performed for each of the hydrochlorides of Examples 26, 27, 32, 33, 48, 49, 53 and 54 and the acetates of Examples 70 to 77. The comparative solubilities obtained using the hydrochlorides of Examples 26, 27, 32, 33, 48, 49, 53 and 54 and the acetates of Examples 70 to 77 are listed in the following Table 1.

In the case of `Cl.N=C(NC(=N)N1CCCCC1)Nc1cccc(Cl)c1` [Example 20, N1-piperidine-N5-(3-chloro)phenyl biguanide hydrochloride], in data set [1] (0.1 μM), the “MFE (%) (mammosphere-forming efficiency)” value is recorded as 3.6%, the “Number of Mammospheres” value was 72 and the inhibition at 0.1 µM amounted to 30.1%. In addition, in data set [1] (1 μM), the “MFE (%) (mammosphere-forming efficiency)” value was determined as 5.2%, the “Number of Mammospheres” value is on record as 103 and the inhibition at 1 µM worked out at 0%. Besides, in data set [1] (5 μM), the “MFE (%) (mammosphere-forming efficiency)” value was 3.8%, the “Number of Mammospheres” value is given as 75 and the inhibition at 5 µM came out at 27.2%. In data set [1] (10 μM), the “MFE (%) (mammosphere-forming efficiency)” value is recorded as 1.5%, the “Number of Mammospheres” value was found to be 29 and the inhibition at 10 µM was found to be 71.8%.
Turning to `Cl.N=C(NC(=N)N1CCCCCC1)Nc1cccc(Cl)c1` [Example 21, N1-azepane-N5-(3-chloro)phenyl biguanide hydrochloride], in data set [1] (0.1 μM), the “MFE (%) (mammosphere-forming efficiency)” value stood at 5.8%, the “Number of Mammospheres” value came out at 115 and the inhibition at 0.1 µM was found to be 30.1%. Also, in data set [1] (1 μM), the “MFE (%) (mammosphere-forming efficiency)” value was 5.3%, the “Number of Mammospheres” value is 105 and the inhibition at 1 µM is -1.9%. In addition, in data set [1] (5 μM), the “MFE (%) (mammosphere-forming efficiency)” value was found to be 3.6%, the “Number of Mammospheres” value came out at 71 ± 4.2 and the inhibition at 5 µM was 31.1%. Also, in data set [1] (10 μM), the “MFE (%) (mammosphere-forming efficiency)” value is on record as 2.3%, the “Number of Mammospheres” value was 46 ± 2.1 and the inhibition at 10 µM was 55.8%.
With `Cl.N=C(NC(=N)N1CCCC1)Nc1ccc(C(F)(F)F)cc1` [Example 26, N1-pyrrolidine-N5-(4-trifluoromethyl)phenyl biguanide hydrochloride], the “Solubility in water (%), hydrochloride salt” value in data set [2] is on record as 80%. Moreover, in data set [1] (0.1 μM), the “MFE (%) (mammosphere-forming efficiency)” value is on record as 5.3%, the “Number of Mammospheres” value is given as 105 and the inhibition at 0.1 µM is -11.7%. Further, in data set [1] (1 μM), the “MFE (%) (mammosphere-forming efficiency)” value is 5.6%, the “Number of Mammospheres” value was 112 and the inhibition at 1 µM is -8.7%. In data set [1] (5 μM), the “MFE (%) (mammosphere-forming efficiency)” value amounted to 6.0%, the “Number of Mammospheres” value came out at 120 and the inhibition at 5 µM is -16.5%. Besides, in data set [1] (10 μM), the “MFE (%) (mammosphere-forming efficiency)” value is recorded as 3.6%, the “Number of Mammospheres” value is recorded as 72 ± 11.3 and the inhibition at 10 µM came to 30.1%.
In the case of `Cl.N=C(NC(=N)N1CCCCC1)Nc1ccc(C(F)(F)F)cc1` [Example 27, N1-piperidine-N5-(4-trifluoromethyl)phenyl biguanide hydrochloride], the “Solubility in water (%), hydrochloride salt” value in data set [2] is reported as 20%. For the same compound, in data set [1] (0.1 μM), the “MFE (%) (mammosphere-forming efficiency)” value is given as 5.2%, the “Number of Mammospheres” value was 103 and the inhibition at 0.1 µM was found to be 0%. In addition, in data set [1] (1 μM), the “MFE (%) (mammosphere-forming efficiency)” value is given as 5.2%, the “Number of Mammospheres” value worked out at 105 ± 16.3 and the inhibition at 1 µM is -1.5%. Also, in data set [1] (5 μM), the “MFE (%) (mammosphere-forming efficiency)” value worked out at 3.0%, the “Number of Mammospheres” value stood at 61 ± 3.5 and the inhibition at 5 µM turned out to be 41.3%. Besides, in data set [1] (10 μM), the “MFE (%) (mammosphere-forming efficiency)” value is listed as 1.6%, the “Number of Mammospheres” value is given as 32 and the inhibition at 10 µM stood at 68.9%.
